Reference: patent US9796711B2, “Substituted pyrazolo[3,4-b]pyridin-6-carboxylic acids and method of use” (AbbVie S.àr.l., priority 2015, dated 2017)

Assays:
[1] = biological target: T1, ΔF508-CFTR (Homo sapiens, UniProt P13569, DEL508-508); assay: CFTR cell surface levels using HRP-tagged ΔF508-CFTR expressing CFBE cells, in the presence of a co-corrector; format: cell-based; conditions: HRP-tagged ΔF508-CFTR expressing CFBE cells, in the presence of 3 μM co-corrector; for EC50: read-out: EC50
T1 construct: host or cells: CFBE41o-, doxycycline-inducible
T1 sequence (P13569 with tags, fused parts or gaps DEL508-508): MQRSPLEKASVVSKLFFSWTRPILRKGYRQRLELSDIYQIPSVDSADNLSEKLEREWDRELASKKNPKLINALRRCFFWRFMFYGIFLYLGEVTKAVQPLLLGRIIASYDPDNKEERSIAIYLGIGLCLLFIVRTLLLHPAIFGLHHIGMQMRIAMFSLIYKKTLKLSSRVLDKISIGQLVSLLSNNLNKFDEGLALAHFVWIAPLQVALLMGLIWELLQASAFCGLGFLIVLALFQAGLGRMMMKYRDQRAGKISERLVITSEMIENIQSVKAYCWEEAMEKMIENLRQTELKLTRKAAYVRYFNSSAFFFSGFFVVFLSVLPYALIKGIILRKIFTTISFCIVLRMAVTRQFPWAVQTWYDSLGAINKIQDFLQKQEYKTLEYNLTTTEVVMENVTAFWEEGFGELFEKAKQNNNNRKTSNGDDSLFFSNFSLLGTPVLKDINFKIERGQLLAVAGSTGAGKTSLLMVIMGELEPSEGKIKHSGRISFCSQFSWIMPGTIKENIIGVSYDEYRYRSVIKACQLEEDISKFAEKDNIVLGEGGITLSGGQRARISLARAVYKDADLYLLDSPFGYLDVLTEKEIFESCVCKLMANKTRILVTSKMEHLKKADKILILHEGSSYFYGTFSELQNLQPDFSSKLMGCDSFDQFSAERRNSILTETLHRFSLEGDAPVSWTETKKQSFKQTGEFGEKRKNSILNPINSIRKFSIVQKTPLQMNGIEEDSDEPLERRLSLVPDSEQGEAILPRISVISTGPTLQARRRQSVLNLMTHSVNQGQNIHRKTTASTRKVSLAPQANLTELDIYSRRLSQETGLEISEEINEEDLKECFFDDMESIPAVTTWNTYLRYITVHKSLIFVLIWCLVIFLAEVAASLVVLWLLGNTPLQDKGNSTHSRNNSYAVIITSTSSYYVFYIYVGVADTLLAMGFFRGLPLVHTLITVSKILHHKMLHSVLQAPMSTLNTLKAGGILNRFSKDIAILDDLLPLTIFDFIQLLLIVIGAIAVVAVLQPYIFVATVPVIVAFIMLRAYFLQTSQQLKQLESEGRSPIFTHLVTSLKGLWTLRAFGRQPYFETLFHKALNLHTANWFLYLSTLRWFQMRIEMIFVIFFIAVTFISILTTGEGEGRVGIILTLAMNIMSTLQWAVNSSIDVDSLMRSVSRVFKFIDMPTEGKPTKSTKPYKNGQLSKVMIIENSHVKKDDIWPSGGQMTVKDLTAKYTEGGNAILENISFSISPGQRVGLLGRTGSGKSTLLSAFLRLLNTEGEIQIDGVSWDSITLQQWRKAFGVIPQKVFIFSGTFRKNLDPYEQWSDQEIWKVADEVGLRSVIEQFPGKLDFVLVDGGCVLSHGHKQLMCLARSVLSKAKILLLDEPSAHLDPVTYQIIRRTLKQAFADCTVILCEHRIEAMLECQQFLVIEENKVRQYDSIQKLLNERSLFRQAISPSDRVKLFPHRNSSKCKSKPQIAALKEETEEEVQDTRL
Summary of the method: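 Cells were seeded with 0.5 μg/mL doxycycline and held 68 h at 37 °C. Test compounds plus 3 μM co-corrector (final 0.1% DMSO) were then added for 20 h at 33 °C. Washed cells received HRP substrate, and luminescence was normalized between DMSO and 3 μM co-corrector controls.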

[2] = biological target: T1, ΔF508-CFTR; assay: CFTR cell surface levels using HRP-tagged ΔF508-CFTR expressing CFBE cells, intrinsic corrector capacity; format: cell-based; conditions: HRP-tagged ΔF508-CFTR CFBE41o- cells, compounds alone (intrinsic corrector capacity), 20 hours at 33° C.; for % Activation: positive control 3 μM corrector; for EC50: read-out: EC50
Summary of the method: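 Here the cells express ΔF508-CFTR with horseradish peroxidase inserted in extracellular loop 4, so only rescued channel at the surface gives luminescent signal. Compounds act on their own, 20 h at the reduced temperature of 33 °C; values are percent activity relative to DMSO and a 3 μM corrector.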

Row | Compound | % Activation [1] | EC50 [1] | % Activation [2] | EC50 [2]
1 | Cc1nn(-c2ccccc2)c2nc(C(=O)O)cc(N3CCC(NS(C)(=O)=O)CC3)c12 [compound 303, 4-{4-[(methanesulfonyl)amino]piperidin-1-yl}-3-methyl-1-phenyl-1H-pyrazolo[3,4-b]pyridine-6-carboxylic acid] | 123.5% | 7.5 µM | 10.878% | 7.5 µM
2 | Cc1nn(-c2ccccc2)c2nc(C(=O)O)cc(N3CC4CC4C3)c12 (stereo not drawn) [compound 304, 4-(3-azabicyclo[3.1.0]hexan-3-yl)-3-methyl-1-phenyl-1H-pyrazolo[3,4-b]pyridine-6-carboxylic acid] | 254.9% | 1.99 µM | 98.425% | 2.51 µM
3 | Cc1nn(-c2ccccc2)c2nc(C(=O)O)cc(N3CCC(C(=O)N4CCCC4)CC3)c12 [compound 305, 3-methyl-1-phenyl-4-[4-(pyrrolidine-1-carbonyl)piperidin-1-yl]-1H-pyrazolo[3,4-b]pyridine-6-carboxylic acid] | 170.5% | 1.44 µM | 29.97% | 3.12 µM
4 | Cc1nn(-c2ccccc2)c2nc(C(=O)O)cc(N3CC4(CCOC4)C3)c12 [compound 306, 3-methyl-4-(6-oxa-2-azaspiro[3.4]octan-2-yl)-1-phenyl-1H-pyrazolo[3,4-b]pyridine-6-carboxylic acid] | 147.8% | 2.51 µM | 22.69% | 7.5 µM
5 | Cc1nn(-c2ccccc2)c2nc(C(=O)O)cc(N3CC4(CCCC4)C3)c12 [compound 307, 4-(2-azaspiro[3.4]octan-2-yl)-3-methyl-1-phenyl-1H-pyrazolo[3,4-b]pyridine-6-carboxylic acid] | 233.4% | 1.54 µM | 77.423% | 1.92 µM
6 | Cc1nn(-c2ccccc2)c2nc(C(=O)O)cc(N3CC4(CCCOC4)C3)c12 [compound 308, 3-methyl-4-(6-oxa-2-azaspiro[3.5]nonan-2-yl)-1-phenyl-1H-pyrazolo[3,4-b]pyridine-6-carboxylic acid] | 221.85% | 2.51 µM | 59.78% | 2.51 µM
7 | Cc1nn(-c2ccccc2)c2nc(C(=O)O)cc(N3CC4(CCCCC4)C3)c12 [compound 309, 4-(2-azaspiro[3.5]nonan-2-yl)-3-methyl-1-phenyl-1H-pyrazolo[3,4-b]pyridine-6-carboxylic acid] | 237.3% | 1.33 µM | 67.305% | 1.33 µM
8 | Cc1nn(-c2ccccc2)c2nc(C(=O)O)cc(N3CCCC4(CC4)C3)c12 [compound 310, 4-(5-azaspiro[2.5]octan-5-yl)-3-methyl-1-phenyl-1H-pyrazolo[3,4-b]pyridine-6-carboxylic acid] | 199.65% | 1.61 µM | 88.73% | 1.89 µM
9 | Cc1nn(-c2ccccc2)c2nc(C(=O)O)cc(N3CCC4(CCCO4)C3)c12 (stereo not drawn) [compound 311, 3-methyl-4-(1-oxa-7-azaspiro[4.4]nonan-7-yl)-1-phenyl-1H-pyrazolo[3,4-b]pyridine-6-carboxylic acid] | 195.5% | 2.14 µM | 53.7% | 2.51 µM
10 | Cc1nn(-c2ccccc2)c2nc(C(=O)O)cc(N3CC4(CCCCO4)C3)c12 [compound 312, 3-methyl-4-(5-oxa-2-azaspiro[3.5]nonan-2-yl)-1-phenyl-1H-pyrazolo[3,4-b]pyridine-6-carboxylic acid] | 185% | 2.32 µM | 61.325% | 2.51 µM
11 | Cc1nn(-c2ccccc2)c2nc(C(=O)O)cc(N3CCC4(CCNC4=O)C3)c12 (stereo not drawn) [compound 313, 3-methyl-4-(6-oxo-2,7-diazaspiro[4.4]nonan-2-yl)-1-phenyl-1H-pyrazolo[3,4-b]pyridine-6-carboxylic acid] | 132.2% | 7.5 µM | 11.239% | 7.5 µM
12 | Cc1nn(-c2ccccc2)c2nc(C(=O)O)cc(N3CCC([C@H](F)CN(C)C)CC3)c12 [compound 314, 4-{4-[(1S)-2-(dimethylamino)-1-fluoroethyl]piperidin-1-yl}-3-methyl-1-phenyl-1H-pyrazolo[3,4-b]pyridine-6-carboxylic acid] | 250.1% | 2.51 µM | 92.46% | 2.51 µM
13 | Cc1nn(-c2ccccc2)c2nc(C(=O)O)cc(N3CCCOCC3)c12 [compound 315, 3-methyl-4-(1,4-oxazepan-4-yl)-1-phenyl-1H-pyrazolo[3,4-b]pyridine-6-carboxylic acid] | 150.3% | 4.17 µM | 24.61% | 3.43 µM
14 | CC(C)c1nn(-c2cccc(F)c2)c2nc(C(=O)O)cc(-c3cnc(N(C)C4CCOCC4)nc3)c12 [compound 316, 1-(3-fluorophenyl)-4-{2-[methyl(oxan-4-yl)amino]pyrimidin-5-yl}-3-(propan-2-yl)-1H-pyrazolo[3,4-b]pyridine-6-carboxylic acid] | 435.6% | 0.308 µM | 218.87% | 0.565 µM
15 | CC(C)c1nn(-c2cc(F)cc(F)c2)c2nc(C(=O)O)cc(-c3cnc(N(C)C4CCOCC4)nc3)c12 [compound 317, 1-(3,5-difluorophenyl)-4-{2-[methyl(oxan-4-yl)amino]pyrimidin-5-yl}-3-(propan-2-yl)-1H-pyrazolo[3,4-b]pyridine-6-carboxylic acid] | 433.4% | 0.972 µM | 216.25% | 0.695 µM
16 | COCCOC1CCN(c2cc(C(=O)O)nc3c2c(C)nn3-c2ccccc2)CC1 [compound 318, 4-[4-(2-methoxyethoxy)piperidin-1-yl]-3-methyl-1-phenyl-1H-pyrazolo[3,4-b]pyridine-6-carboxylic acid] | 323.72% | 1.86 µM | 134.15% | 2.63 µM
17 | Cc1nn(-c2ccccc2)c2nc(C(=O)O)cc(N3CCC(C(=O)N(C)C)CC3)c12 [compound 319, 4-[4-(dimethylcarbamoyl)piperidin-1-yl]-3-methyl-1-phenyl-1H-pyrazolo[3,4-b]pyridine-6-carboxylic acid] | 270.75% | 4.17 µM | 80.905% | 2.51 µM
18 | Cc1nn(-c2ccccc2)c2nc(C(=O)O)cc(N3CCCN(S(C)(=O)=O)CC3)c12 [compound 320, 4-[4-(methanesulfonyl)-1,4-diazepan-1-yl]-3-methyl-1-phenyl-1H-pyrazolo[3,4-b]pyridine-6-carboxylic acid] | 166.3% | 3.34 µM | 19.37% | > 10 µM
19 | COCCCN1CCN(c2cc(C(=O)O)nc3c2c(C)nn3-c2ccccc2)CC1 [compound 321, 4-[4-(3-methoxypropyl)piperazin-1-yl]-3-methyl-1-phenyl-1H-pyrazolo[3,4-b]pyridine-6-carboxylic acid] | 196.85% | 2.51 µM | 39.85% | 2.51 µM
20 | Cc1nn(-c2ccccc2)c2nc(C(=O)O)cc(N3CCN(C(=O)N4CCOCC4)CC3)c12 [compound 322, 3-methyl-4-[4-(morpholine-4-carbonyl)piperazin-1-yl]-1-phenyl-1H-pyrazolo[3,4-b]pyridine-6-carboxylic acid] | 154.55% | 3.34 µM | 12.25% | > 10 µM
21 | Cc1nn(-c2ccccc2)c2nc(C(=O)O)cc(N3CCN(CC(=O)N(C)C)CC3)c12 [compound 323, 4-{4-[2-(dimethylamino)-2-oxoethyl]piperazin-1-yl}-3-methyl-1-phenyl-1H-pyrazolo[3,4-b]pyridine-6-carboxylic acid] | 128.4% | > 10 µM | 8.143% | > 10 µM
22 | Cc1nn(-c2ccccc2)c2nc(C(=O)O)cc(N3CCC(N4CCOCC4)CC3)c12 [compound 324, 3-methyl-4-[4-(morpholin-4-yl)piperidin-1-yl]-1-phenyl-1H-pyrazolo[3,4-b]pyridine-6-carboxylic acid] | 279.1% | 2.51 µM | 93.32% | 2.51 µM
23 | CC(C)c1nn(-c2ccc(F)cc2F)c2nc(C(=O)O)cc(-c3cnc(N4CCC(C#N)CC4)nc3)c12 [compound 325, 4-[2-(4-cyanopiperidin-1-yl)pyrimidin-5-yl]-1-(2,4-difluorophenyl)-3-(propan-2-yl)-1H-pyrazolo[3,4-b]pyridine-6-carboxylic acid] | 389.75% | 0.779 µM | 177.1% | 1.2 µM
24 | CC(C)c1nn(-c2ccc(F)cc2F)c2nc(C(=O)O)cc(-c3ccc(N4CCC(C#N)CC4)nc3)c12 [compound 326, 4-[6-(4-cyanopiperidin-1-yl)pyridin-3-yl]-1-(2,4-difluorophenyl)-3-(propan-2-yl)-1H-pyrazolo[3,4-b]pyridine-6-carboxylic acid] | 360.83% | 0.574 µM | 180.53% | 0.977 µM
